# Reference: patent US10975432B2, “Tagged multi-nucleotides useful for nucleic acid sequencing” (Roche Sequencing Solutions, Inc., priority 2016, dated 2021)
# Tests used:
# [1] = tested on: α-HL-Pol6 nanopore-polymerase conjugate
# [2] = tested on: exonuclease deficient variant of the Pol6 polymerase; test: Displacement assay of single-, double-, triple- and quadruple-nucleotide substrates (Example 3); type: biochemical
# Description: The assay is a displacement assay using an exonuclease deficient variant of the Pol6 polymerase as described in Example 2, wherein polymerase activity is followed by fluorometrically monitoring the change in FRET between the Cy5 and BHQ labels as the polymerase incorporates the substrates in the DNA extension reaction.
# Briefly, an assay solution containing the Pol6 polymerase, the 5′-Cy5-labelled displacement DNA template of SEQ ID NO: 124, and the 3′-BHQ-labelled quencher primer of SEQ ID NO: 124 in 75 mM potassium glutamate (“K-Glu”) is prepared in the absence of the substrate or Mg^2+ ion. A substrate solution is prepared containing either the multi-nucleotide compound to be assayed (i.e., “Y-Tag,” “W-Tag,” or “Q-Tag”), the non-tagged dT6P (“Hexa-PO4), or the tagged single nucleotide substrate, dA6P-dT30-C3 (“Full Tag”) of compound (3d). Also included in the substrate solution are the other three nucleotide-hexaphosphate (“dN6P”) substrates required for polymerase synthesis of a strand complementary to the DNA template (i.e., dA6P, dC6P, dG6P). This substrate solution is added to the polymerase solution. Assays are carried out for each of the test substrates at the following initial concentrations: 0.25 μM, 0.5 μM, 1.0 μM, 2.0 μM, 4.0 μM, and 8.0 μM. Additional K-Glu is added to bring the total K-Glu concentration in the mixture up to 300 mM. The polymerase reaction is then initiated by addition of MgCl2. Final concentrations in the assay reaction mixture are: 100 nM Pol6 enzyme, 50 nM Cy5 displacement DNA template, 40 μM each of other dN6P substrates, 300 mM K-Glu, 25 mM HEPES, 0.2 mM EDTA, 0.05% Triton X-100, 5 mM TCEP, 25 μg/mL BSA, 5 mM MgCl2, pH 7.5.
compound,measurement,setting,value
"(dC6P)2-dT20-C3: two dC6P linked via doubler-linker to tag SEQ ID NO: 105 (DNA tttttttttttttttttttt; two dC6P via doubler linker, C3 cap; (20)..(20) T-propanol)",Blocking current level,[1],0.76+/−0.04 Fraction of Open Current
(dT6P)2-dT4-(N3CE-dT)3-dT13-C3: two dT6P linked via doubler-linker to tag SEQ ID NO: 106 (DNA TTTTNNNTTTTTTTTTTTTT; chemistry not fully specified),Blocking current level,[1],0.62+/−0.05 Fraction of Open Current
"(dG6P)2-dT6-(Tmp)6-dT8-C3: two dG6P linked via doubler-linker to tag SEQ ID NO: 107 (DNA TTTTTTNNNNNNTTTTTTTT; two dG6P via doubler linker, Tmp, C3 cap; (7)..(12) thymidine methylphosphonate; (20)..(20) T-propanol)",Blocking current level,[1],0.38+/−0.08 Fraction of Open Current
"(dA6P)2-dT5-(BHEB)-dT14-C3: two dA6P linked via doubler-linker to tag SEQ ID NO: 109 (DNA TTTTTNTTTTTTTTTTTTTT; two dA6P via doubler linker, BHEB, C3 cap, chemistry not fully specified)",Blocking current level,[1],0.88+/−0.03 Fraction of Open Current
Cc1cn([C@H]2C[C@H](O)[C@@H](COP(=O)(O)OP(=O)(O)OP(=O)(O)OP(=O)(O)OP(=O)(O)OP(=O)(O)O)O2)c(=O)[nH]c1=O [dT6P],Rate (Bases/sec),[2]; Initial Conc. Tag 0.25 μM,0.57 Bases/sec
same,Rate (Bases/sec),[2]; Initial Conc. Tag 0.5 μM,2.87 Bases/sec
same,Rate (Bases/sec),[2]; Initial Conc. Tag 1.0 μM,3.48 Bases/sec
same,Rate (Bases/sec),[2]; Initial Conc. Tag 2.0 μM,3.89 Bases/sec
same,Rate (Bases/sec),[2]; Initial Conc. Tag 4.0 μM,4.48 Bases/sec
same,Rate (Bases/sec),[2]; Initial Conc. Tag 8.0 μM,4.24 Bases/sec
